From patent publication US10654890B2, “Cyclic peptide derivative, method for preparing same and composition thereof” (priority 2014, dated 2020)

Tested on: culture astrocyte
Experiment: Astrocyte proliferative activity test (BrdU cell proliferation ELISA)
Type: cell-based, mouse
Procedure: A pregnant ICR female mouse was purchased from Japan SLC, Inc., and a neonatal mouse 24 to 48 after birth was used for the test.
A neonatal ICR mouse (24 to 48 after birth) was sufficiently sterilized with 70% ethanol, immersed in 30 ml of PBS (−) in a 100 mm dish (diameter of 100 mm, Orange Scientific) for cell culture, and then placed in a clean bench. The neonatal mouse was subjected to cervical dislocation using tweezers and euthanized. Head of the neonatal mouse was open and the entire brain was removed. The obtained brain was transferred to a 100 mm dish for cell culture in which 15 ml of high glucose Dulbecco's modified Eagle medium (HG-D-MEM, Wako Pure Chemical Industries, Ltd.) is added. By using tweezers, the olfactory bulb, median eminence, and meninges were removed in the medium to obtain only a cerebrum having hippocampus. Subsequently, the obtained cerebrum was transferred to a 100 mm dish for cell culture added with 10 ml of HG-D-MEM, and using a scalpel, the cerebrum was finely cut to be 1 mm^2 or less. The cerebrum after cutting was transferred, together with the medium, to a 50 ml conical tube (TPP), and after allowing it to stand for 2 minutes, the supernatant was removed. Subsequently, the cerebrum after cutting was added with 4 ml of fresh HG-D-MEM, and after further adding 400 μl of 2.5% trypsin (SIGMA) and 40 μl of 1% DNase I (SIGMA), the cerebrum was incubated in a water bath at 37° C. for 10 minutes under intermittent stirring. Subsequently, to the cerebrum after cutting, 10 ml of HG-D-MEM (10% FBS) was added to terminate the reaction of trypsin followed by centrifuge for 3 minutes at 1,000×g using a centrifuge (H-9R, KOKUSAN Co., Ltd.). The supernatant was collected by an electric pipette, 10 ml of HG-D-MEM (10% FBS) was added to a precipitated cell mass, and pipetting using a sterile pipette was carried out several times until the cell mass is not observed. To remove the remaining cell mass from this cell dispersion, the cell dispersion was passed through a cell strainer (pore diameter of 100 μm, BD Falcon™), and the number of cells in the cell dispersion which has passed through the cell strainer was counted by using a cell counting plate. An adjustment was made with HG-D-MEM (10% FBS) such that the number of cells is 6.0×10^5 cells/ml. After the adjustment of the number of cells, the cell dispersion was seeded, in an amount of 7 ml for each, to a Poly-D-Lysine Cellware 100 mm Dish (PDL 100 mm dish, BD Falcon™). 96 Hours after the seeding, the medium was removed once using an aspirator, and after briefly washing the inside of a 100 mm PDL dish with 10 ml of PBS (−), the medium exchange was carried out by newly adding 7 ml of HG-D-MEM. The above method and the astrocyte preparation described below were carried out based on the method of McCarthy and de Vellis (1980, Non Patent Literature 30).
72 Hours after the medium exchange, the 100 mm PDL dish seeded with the cell broth was removed from the incubator, and tightly covered using a parafilm and fixed by overlaying 3 to 4 dishes. The resultant was cultured by shaking using a bioshaker (MULTI SHAKER MMS, INCUBATOR FMS/EYELA) under a condition including 37° C., 100 rpm, and 20 hours, and the neuronal cells, cell debris, dead cells or the like were liberated. At that time, in the inside the 100 mm PDL dish, only the astrocyte as a glial cell in central nervous system other than neuron was adhered (hereinbelow, described as culture astrocyte). After the shaking, the 100 mm PDL dish was transferred to a clean bench, the supernatant was removed by an aspirator and washed with 10 ml of PBS (−), and after adding 1 ml of 2.5% trypsin (SIGMA) using a Pasteur pipette, the dish was left to stand in an incubator for 10 minutes. The 100 mm PDL dish was again brought back to the clean bench, and added with 10 ml of Dulbecco's modified Eagle medium (D-MEM, Wako Pure Chemical Industries, Ltd.) (10% FBS). […]

Row | Structure (SMILES) | astrocyte proliferative activity (25 μM, FIG. 8 and FIG. 9) | astrocyte proliferation (100 μM, FIG. 7)
1 | CNC(=O)Oc1ccc2c(c1)[C@]1(C)CCN(C)[C@@H]1N2C [eserin, reference compound] | no significant astrocyte proliferative activity was observed | 
2 | NS(=O)(=O)Cc1noc2ccccc12 [zonisamide, reference compound] |  | hardly observed
